Assay [1] concerns the target T1, SIRT1 (Homo sapiens, UniProt Q96EB6).
T1 sequence (Q96EB6 1-747): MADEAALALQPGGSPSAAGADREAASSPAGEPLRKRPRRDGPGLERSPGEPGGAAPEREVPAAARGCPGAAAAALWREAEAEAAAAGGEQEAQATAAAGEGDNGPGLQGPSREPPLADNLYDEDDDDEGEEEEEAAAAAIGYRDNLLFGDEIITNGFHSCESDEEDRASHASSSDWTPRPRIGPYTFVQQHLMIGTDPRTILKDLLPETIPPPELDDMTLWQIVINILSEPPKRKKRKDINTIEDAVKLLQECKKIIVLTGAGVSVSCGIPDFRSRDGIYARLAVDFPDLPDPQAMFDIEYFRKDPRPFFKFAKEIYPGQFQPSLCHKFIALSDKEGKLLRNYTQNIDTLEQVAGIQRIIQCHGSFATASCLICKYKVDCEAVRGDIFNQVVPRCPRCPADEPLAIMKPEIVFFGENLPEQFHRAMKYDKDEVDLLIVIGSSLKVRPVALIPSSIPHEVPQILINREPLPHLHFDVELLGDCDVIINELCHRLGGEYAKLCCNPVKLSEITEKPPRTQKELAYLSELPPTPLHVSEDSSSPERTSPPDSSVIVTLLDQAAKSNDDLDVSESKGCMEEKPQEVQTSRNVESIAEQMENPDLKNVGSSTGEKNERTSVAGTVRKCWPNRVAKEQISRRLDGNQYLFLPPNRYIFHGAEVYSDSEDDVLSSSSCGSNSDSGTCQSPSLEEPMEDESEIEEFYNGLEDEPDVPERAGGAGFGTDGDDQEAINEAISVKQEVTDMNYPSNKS
Put plainly: Trp mass spectrometry assay of SIRT1 activity. In kind it is biochemical. The conditions noted are these: Trp assay; for Trp EC1.5 (μM): concentration giving 150% activation of SIRT1; for Emax: percent maximum fold activation, read-out: Trp % Fold Act. An excerpt: Mass spectrometry based assays were used to identify modulators of SIRT1 activity. The TAMRA based assay utilized a peptide having 20 amino acid residues as follows: Ac-EE-K(biotin)-[…](Ac)NleSTEG-K(5TMR)-EE-NH2 (SEQ ID NO: 1), wherein K(Ac) is an acetylated lysine residue and Nle is a norleucine. The peptide was labeled with the fluorophore 5TMR (excitation 540 nm/emission 580 nm) at the C-terminus. The sequence of the peptide substrate was based on p53 with several modifications. In addition, the methionine residue naturally present in the sequence was replaced with the norleucine because the methionine may be susceptible to oxidation during synthesis and purification. The Trp based assay utilized a peptide having an amino acid residues as follows: Ac-R-H-K-K(Ac)-W-NH2 (SEQ ID NO: 2).
The Trp mass spectrometry assay was conducted as follows. 0.5 μM peptide substrate and 120 μM βNAD^+ were incubated with 10 nM SIRT1 for 25 minutes at 25° C. in a reaction buffer (50 mM HEPES pH 7.5, […], 1 mM DTT, 0.05% BSA). The SIRT1 protein was obtained by cloning the SirT1 gene into a T7-promoter containing vector, which was then expressed in BL21(DE3) bacterial cells and purified as described in further detail below. Test compound was added at varying concentrations to this reaction mixture and the resulting reactions were monitored. After the 25 minute incubation with SIRT1, 10 μL of 10% formic acid was added to stop the reaction. The resulting reactions were sealed and frozen for later mass spec analysis. The relative SIRT1 activity was then determined by measuring the amount of O-acetyl-ADP-ribose (OAADPR) formed (or, alternatively, the amount of deacetylated Trp peptide generated) by the NAD-dependent sirtuin deacetylation reaction in the presence of varying concentrations of the test compound versus control reactions lacking the test compound. The degree to which the test agent activated deacetylation by SIRT1 was expressed as EC1.5 (i.e., the concentration of compound required to increase SIRT1 activity by 50% over the control lacking test compound), and Percent Maximum Activation (i.e., the maximum activity relative to control (100%) obtained for the test compound).
A control for inhibition of sirtuin activity was conducted by adding 1 μL of 500 mM nicotinamide as a negative control at the start of the reaction (e.g., permits determination of maximum sirtuin inhibition). A control for activation of sirtuin activity was conducted using 10 nM of sirtuin protein, with 1 μL of DMSO in place of compound, to determine the amount of deacetylation of the substrate at a given time point within the linear range of the assay. This time point was the same as that used for test compounds and, within the linear range, the endpoint represents a change in velocity.
For the above assay, SIRT1 protein was expressed and purified as follows. The SirT1 gene was cloned into a T7-promoter containing vector and transformed into BL21(DE3). The protein was expressed by induction with 1 mM IPTG as an N-terminal His-tag fusion protein at 18° C. overnight and harvested at 30,000×g. Cells were lysed with lysozyme in lysis buffer (50 mM Tris-HCl, 2 mM Tris[2-carboxyethyl]phosphine (TCEP), 10 μM ZnCl2, 200 mM NaCl) and further treated with sonication for […] for complete lysis. The protein was purified over a Ni-NTA column (Amersham) and fractions containing pure protein were pooled, concentrated and run over a sizing column (Sephadex S200 26/60 global). The peak containing soluble protein was collected and run on an Ion-exchange column (MonoQ). Gradient elution (200 mM-500 mM NaCl) yielded pure protein. This protein was concentrated and dialyzed against dialysis buffer (20 mM Tris-HCl, 2 mM TCEP) overnight. The protein was aliquoted and frozen at −80° C. until further use.

Assay [2] addresses T1, SIRT1. As to the kind of experiment: TAMRA based mass spectrometry assay of SIRT1 activity. The conditions noted are these: TAMRA assay; for TAMRA EC1.5 (μM): concentration giving 150% activation of SIRT1; for Emax: percent maximum fold activation, read-out: TAMRA % Fold Act. In kind it is biochemical. Put shortly: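 Deacetylation of a biotinylated, TAMRA-tagged p53-based peptide (0.5 μM) by 10 nM His-tagged SIRT1 with 120 μM βNAD+, 25 °C for 25 min, pH 8 Tris-acetate buffer, across a compound concentration range. Quenched by formic acid and read by mass spec as product peptide or OAADPR; activity relative to DMSO reactions, nicotinamide defining maximal inhibition.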

From patent publication US9957271B2, “Substituted bicyclic aza-heterocycles and analogues as sirtuin modulators” (GlaxoSmithKline, LLC, priority 2012, dated 2018) come the findings set out here.

As for `O=C(Nc1cnc2ccc(-c3ccccc3OC(F)(F)F)nn12)c1cnccn1` [Compound 314], at SIRT1 [1], the “Trp EC1.5 (μM)” value is recorded as “B (EC1.5 1-25 μM)” and the Emax is under 350%.

Take `Cc1cc(NC(=O)c2c(C)nn3ccc(-c4ccccc4C(F)(F)F)nc23)nc(C)n1` [Compound 787]: on SIRT1 [2], the “TAMRA EC1.5 (μM)” value is recorded as “A (EC1.5<1 μM)” and the Emax is at least 350%.

Turning to `Cc1nn2ccc(-c3ccccc3C(F)(F)F)nc2c1C(=O)Nc1ccncc1F` [Compound 789], at SIRT1 [2], the “TAMRA EC1.5 (μM)” value is “A (EC1.5<1 μM)” and the Emax was at least 350%.

On to `Cc1cc(C)nc(NC(=O)c2cnc3ccc(-c4ccccc4OC[C@H](O)CO)nn23)c1` [Compound 792], for which, at SIRT1 [2], the “TAMRA EC1.5 (μM)” value is “A (EC1.5<1 μM)” and the Emax was at least 350%.

With `COc1nccc(NC(=O)c2c(C)nn3ccc(-c4ccccc4C(F)(F)F)nc23)n1` [Compound 793, N-(2-methoxypyrimidin-4-yl)-2-methyl-5-(2-(trifluoromethyl)phenyl)pyrazolo[1,5-a]pyrimidine-3-carboxamide], on SIRT1 [2], the “TAMRA EC1.5 (μM)” value is reported as “A (EC1.5<1 μM)” and the Emax is at least 350%.

In the case of `Cc1cc(C(=O)Nc2cnn3ccc(-c4ccccc4C(F)(F)F)nc23)nc(C)n1` [Compound 795], on SIRT1 [2], the “TAMRA EC1.5 (μM)” value was “A (EC1.5<1 μM)” and the Emax is at least 350%.

Regarding `Cc1ccnc(NC(=O)c2c(C)nc3ccc(-c4cccc(OC[C@H](O)CO)c4)nn23)c1` [Compound 798], on SIRT1 [2], the “TAMRA EC1.5 (μM)” value was “A (EC1.5<1 μM)” and the Emax is at least 350%.

As for `Cc1cc(C)nc(C(=O)Nc2cnn3ccc(-c4ccccc4C(F)(F)F)nc23)n1` [Compound 801], at SIRT1 [2], the “TAMRA EC1.5 (μM)” value is given as “A (EC1.5<1 μM)” and the Emax is at least 350%.

`Cc1cccc(NC(=O)c2cnc3ccc(-c4ccccc4OC[C@H](O)CO)nn23)n1` [Compound 804]: on SIRT1 [2], the “TAMRA EC1.5 (μM)” value is “A (EC1.5<1 μM)” and the Emax was at least 350%.

Turning to `Cc1cc(NC(=O)c2cnc3ccc(-c4ccccc4OC[C@H](O)CO)nn23)cc(C)n1` [Compound 805], on SIRT1 [2], the “TAMRA EC1.5 (μM)” value is recorded as “A (EC1.5<1 μM)” and the Emax was at least 350%.

Take `CCOc1nccc(NC(=O)c2cnn3ccc(-c4ccccc4C(F)(F)F)nc23)n1` [Compound 807]: at SIRT1 [2], the “TAMRA EC1.5 (μM)” value is listed as “A (EC1.5<1 μM)” and the Emax was at least 350%.

Turning to `O=C(Nc1cnn2ccc(-c3ccccc3C(F)(F)F)nc12)c1nc2c(s1)CCCC2` [Compound 810], on SIRT1 [2], the “TAMRA EC1.5 (μM)” value is recorded as “A (EC1.5<1 μM)” and the Emax is at least 350%.

Take `Cc1ccnc(NC(=O)c2cnc3ccc(-c4ccccc4OC[C@H](O)CO)nn23)c1` [Compound 811]: on SIRT1 [2], the “TAMRA EC1.5 (μM)” value is listed as “A (EC1.5<1 μM)” and the Emax was at least 350%.

Take `O=C(Nc1cc(O)ncn1)c1cnn2ccc(-c3ccccc3C(F)(F)F)nc12` [Compound 813]: at SIRT1 [2], the “TAMRA EC1.5 (μM)” value is on record as “A (EC1.5<1 μM)” and the Emax is at least 350%.

With `Cc1ccnc(NC(=O)c2c(C)nc3ccc(-c4ccccc4OC[C@H](O)CO)nn23)c1` [Compound 817], on SIRT1 [2], the “TAMRA EC1.5 (μM)” value was “A (EC1.5<1 μM)” and the Emax is at least 350%.

Turning to `Cc1nc2ccc(-c3ccccc3OC[C@H](O)CO)nn2c1C(=O)Nc1ccc(F)cn1` [Compound 819], at SIRT1 [2], the “TAMRA EC1.5 (μM)” value is “A (EC1.5<1 μM)” and the Emax is at least 350%.

`Cc1nc2ccc(-c3cccc(OC[C@H](O)CO)c3)nn2c1C(=O)Nc1ccncc1F` [Compound 822]: on SIRT1 [2], the “TAMRA EC1.5 (μM)” value is given as “A (EC1.5<1 μM)” and the Emax was under 350%.

As to `Cc1cc(C)nc(NC(=O)c2c(C)nc3c(OC[C@H](O)CO)cc(-c4ccccc4C(F)(F)F)nn23)c1` [Compound 834], at SIRT1 [1], the “Trp EC1.5 (μM)” value is “A (EC1.5<1 μM)” and the Emax is at least 350%.

For the compound `Cc1nc2c(OC[C@H](O)CO)cc(-c3ccccc3C(F)(F)F)nn2c1C(=O)Nc1ccc(F)cn1` [Compound 835], at SIRT1 [1], the “Trp EC1.5 (μM)” value was “A (EC1.5<1 μM)” and the Emax is at least 350%.

Consider `O=C(Nc1ccccn1)c1cnc2ccc(N3CC[C@H](F)C3)nn12` [Compound 836], for which, on SIRT1 [1], the “Trp EC1.5 (μM)” value is “B (EC1.5 1-25 μM)” and the Emax was at least 350%.

In the case of `O=C(Nc1cccnc1)c1cnc2ccc(N3CC[C@H](F)C3)nn12` [Compound 837], on SIRT1 [1], the “Trp EC1.5 (μM)” value is on record as “B (EC1.5 1-25 μM)” and the Emax is under 350%.

For `O=C(Nc1ccc(F)cn1)c1cnc2ccc(N3CC[C@H](F)C3)nn12` [Compound 838], at SIRT1 [1], the “Trp EC1.5 (μM)” value is “B (EC1.5 1-25 μM)” and the Emax is under 350%.

As for `O=C(Nc1ccncc1F)c1cnc2ccc(N3CC[C@H](F)C3)nn12` [Compound 839], at SIRT1 [1], the “Trp EC1.5 (μM)” value is on record as “B (EC1.5 1-25 μM)” and the Emax is under 350%.

As for `Cc1nc2ccc(N3CC[C@H](F)C3)nn2c1C(=O)Nc1ccccn1` [Compound 840], at SIRT1 [1], the “Trp EC1.5 (μM)” value was “B (EC1.5 1-25 μM)” and the Emax was at least 350%.

Consider `Cc1nc2ccc(N3CC[C@H](F)C3)nn2c1C(=O)Nc1cccnc1` [Compound 841], for which, at SIRT1 [1], the “Trp EC1.5 (μM)” value was “A (EC1.5<1 μM)” and the Emax is at least 350%.

In the case of `Cc1nc2c(OC[C@H](O)CO)cc(-c3ccccc3C(F)(F)F)nn2c1C(=O)Nc1ccccn1` [Compound 842], at SIRT1 [1], the “Trp EC1.5 (μM)” value was “A (EC1.5<1 μM)” and the Emax was at least 350%.

Consider `Cc1nc2c(OC[C@H](O)CO)cc(-c3ccccc3C(F)(F)F)nn2c1C(=O)Nc1ccncc1F` [Compound 843], for which, on SIRT1 [1], the “Trp EC1.5 (μM)” value was “A (EC1.5<1 μM)” and the Emax was at least 350%.

`Cc1nc2ccc(N3CC[C@H](F)C3)nn2c1C(=O)Nc1ccc(F)cn1` [Compound 844]: at SIRT1 [1], the “Trp EC1.5 (μM)” value is given as “B (EC1.5 1-25 μM)” and the Emax is under 350%.

Regarding `Cc1nc2ccc(N3CC[C@H](F)C3)nn2c1C(=O)Nc1cnccn1` [Compound 845], at SIRT1 [1], the “Trp EC1.5 (μM)” value is “B (EC1.5 1-25 μM)” and the Emax was under 350%.

With `Cc1nc2ccc(N3CC[C@H](F)C3)nn2c1C(=O)Nc1ccncc1F` [Compound 846], at SIRT1 [1], the “Trp EC1.5 (μM)” value was “A (EC1.5<1 μM)” and the Emax is under 350%.
